Assay results: ChEMBL document CHEMBL1201862, “PubChem BioAssay data set” (2004)
Calls of active or inactive are those of the source.

Legend:
Genome polyprotein = Genome polyprotein (dengue virus type 2, UniProt P29990); experiment: flavivirus cap methylation enzyme inhibition – biochemical, confirmation dose response, primary screen (AID 588689); format: functional
Caspase-3 = biological target: T1, Caspase-3 (Homo sapiens, UniProt P42574); format: functional;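 note: Dose-response selectivity test against caspase-3 for candidate inhibitors of sentrin-specific proteases (SENPs)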
T1 sequence (P42574 whole entry): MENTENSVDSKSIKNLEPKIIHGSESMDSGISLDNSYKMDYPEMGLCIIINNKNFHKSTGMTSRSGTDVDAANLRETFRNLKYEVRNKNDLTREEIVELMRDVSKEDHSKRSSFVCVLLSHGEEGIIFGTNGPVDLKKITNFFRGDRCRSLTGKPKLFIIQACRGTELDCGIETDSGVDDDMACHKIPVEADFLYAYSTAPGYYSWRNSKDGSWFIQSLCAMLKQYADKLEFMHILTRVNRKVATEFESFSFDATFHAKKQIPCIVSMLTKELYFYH

[1] = biological target: T2, Sentrin-specific protease 7 (Homo sapiens, UniProt Q9BQF6); format: functional;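 note: Luminescence-based dose-response confirmation of ultra-high-throughput screening hits, measuring inhibition of SENP7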
T2 sequence (Q9BQF6 whole entry): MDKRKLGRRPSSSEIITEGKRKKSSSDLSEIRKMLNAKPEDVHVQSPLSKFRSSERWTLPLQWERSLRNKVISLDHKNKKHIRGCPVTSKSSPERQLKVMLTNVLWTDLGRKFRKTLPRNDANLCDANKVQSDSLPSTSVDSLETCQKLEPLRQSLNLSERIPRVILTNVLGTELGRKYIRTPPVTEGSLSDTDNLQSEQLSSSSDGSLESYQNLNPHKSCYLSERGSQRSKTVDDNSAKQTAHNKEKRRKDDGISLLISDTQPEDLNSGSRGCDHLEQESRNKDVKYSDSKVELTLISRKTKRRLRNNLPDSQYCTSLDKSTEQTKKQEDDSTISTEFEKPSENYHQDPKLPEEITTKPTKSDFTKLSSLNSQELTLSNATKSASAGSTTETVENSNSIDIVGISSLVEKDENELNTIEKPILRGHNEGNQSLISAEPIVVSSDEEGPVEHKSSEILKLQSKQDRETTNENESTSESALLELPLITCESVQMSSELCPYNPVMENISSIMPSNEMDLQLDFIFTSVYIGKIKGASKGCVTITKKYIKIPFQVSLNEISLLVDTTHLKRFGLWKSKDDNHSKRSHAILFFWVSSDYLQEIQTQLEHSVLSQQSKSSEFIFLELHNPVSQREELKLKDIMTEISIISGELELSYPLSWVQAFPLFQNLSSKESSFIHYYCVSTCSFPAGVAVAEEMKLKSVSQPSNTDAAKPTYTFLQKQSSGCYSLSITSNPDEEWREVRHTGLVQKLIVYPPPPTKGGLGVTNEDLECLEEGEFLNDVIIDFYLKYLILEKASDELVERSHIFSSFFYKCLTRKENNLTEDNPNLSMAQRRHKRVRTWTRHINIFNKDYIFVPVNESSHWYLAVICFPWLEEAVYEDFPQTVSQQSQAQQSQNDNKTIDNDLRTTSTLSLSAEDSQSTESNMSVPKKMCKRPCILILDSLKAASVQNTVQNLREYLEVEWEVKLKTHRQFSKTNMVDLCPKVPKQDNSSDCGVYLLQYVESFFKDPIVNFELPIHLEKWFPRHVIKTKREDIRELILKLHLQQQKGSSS

[2] = biological target: T3, Sentrin-specific protease 6 (Homo sapiens, UniProt Q9GZR1); format: functional;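 note: Luminescence-based dose-response confirmatory assay of SENP6 inhibition, following up an ultra-high-throughput screen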
T3 sequence (Q9GZR1 whole entry): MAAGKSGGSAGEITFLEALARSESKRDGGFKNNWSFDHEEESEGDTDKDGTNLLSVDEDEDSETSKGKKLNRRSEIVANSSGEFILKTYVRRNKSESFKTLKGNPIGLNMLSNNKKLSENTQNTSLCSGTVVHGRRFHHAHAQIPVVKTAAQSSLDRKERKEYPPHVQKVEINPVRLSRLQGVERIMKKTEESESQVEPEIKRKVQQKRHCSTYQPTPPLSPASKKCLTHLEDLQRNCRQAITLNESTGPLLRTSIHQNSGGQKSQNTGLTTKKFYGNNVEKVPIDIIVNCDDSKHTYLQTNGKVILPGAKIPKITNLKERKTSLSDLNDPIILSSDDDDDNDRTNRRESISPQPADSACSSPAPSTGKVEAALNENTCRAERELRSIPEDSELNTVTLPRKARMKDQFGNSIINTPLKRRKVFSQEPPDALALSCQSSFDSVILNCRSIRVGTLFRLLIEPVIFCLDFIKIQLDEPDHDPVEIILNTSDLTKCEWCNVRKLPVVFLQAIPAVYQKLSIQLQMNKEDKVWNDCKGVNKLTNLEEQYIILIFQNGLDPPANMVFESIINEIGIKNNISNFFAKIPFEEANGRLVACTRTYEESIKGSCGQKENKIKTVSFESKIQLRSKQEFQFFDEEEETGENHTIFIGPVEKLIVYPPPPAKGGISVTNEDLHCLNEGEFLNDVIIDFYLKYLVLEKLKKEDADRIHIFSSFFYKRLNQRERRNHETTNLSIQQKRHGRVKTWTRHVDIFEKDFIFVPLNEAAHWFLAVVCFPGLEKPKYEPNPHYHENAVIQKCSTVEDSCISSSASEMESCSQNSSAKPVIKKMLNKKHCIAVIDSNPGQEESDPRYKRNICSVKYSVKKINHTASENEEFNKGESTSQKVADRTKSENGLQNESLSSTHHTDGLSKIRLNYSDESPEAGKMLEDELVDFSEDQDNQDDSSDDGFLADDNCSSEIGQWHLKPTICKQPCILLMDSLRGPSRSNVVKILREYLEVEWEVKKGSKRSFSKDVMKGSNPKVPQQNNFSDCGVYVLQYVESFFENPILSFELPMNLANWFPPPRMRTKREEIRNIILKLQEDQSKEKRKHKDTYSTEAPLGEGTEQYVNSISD

[3] = biological target: T4, Sentrin-specific protease 8 (Homo sapiens, UniProt Q96LD8); format: functional;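 note: luminescence read-out of SENP8 inhibition, dose-response confirmation following an ultra-high-throughput screen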
T4 sequence (Q96LD8 whole entry): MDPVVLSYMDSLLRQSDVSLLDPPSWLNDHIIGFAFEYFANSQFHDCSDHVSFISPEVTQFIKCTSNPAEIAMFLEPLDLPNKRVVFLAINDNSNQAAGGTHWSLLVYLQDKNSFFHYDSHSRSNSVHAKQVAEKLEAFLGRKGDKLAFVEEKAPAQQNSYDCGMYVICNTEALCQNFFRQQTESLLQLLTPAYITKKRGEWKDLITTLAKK

INS1 = experiment: INS-1E survival protection against cytokine death – cell-based, luminescence, retest, dose response (AID 449756); format: functional; details: Rattus norvegicus;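 note: cell death triggered by IL-1 beta plus TNF-alpha plus IFN-gamma mixture; protective hits raise ATP signal compared with cytokine alone wells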
[4] = viability loss in THP-1 monocytes – THP-1 cells, cytotoxicity control for Vif-APOBEC3G degradation inhibitor project, dose response (AID 1117359); format: functional; details: THP-1
[5] = Trypanosoma cruzi growth suppression in host cells – NIH3T3 host cells, beta-gal luminescence, confirmation (AID 2044); format: functional, cell-based;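 note: intracellular parasites grown in NIH/3T3 mouse fibroblasts as host cells; luminescent beta-galactosidase reporter signal from transgenic T. cruzi replicating inside host cells; inhibitors lower the luminescence signal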
[6] = NIH3T3 cell viability loss – ATP luminescence, mouse fibroblasts, counter-screen, dose response (AID 2010); format: functional, cell-based;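 note: cells exposed to compound for about 90 hours before reading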

Genome polyprotein, sequence (P29990 2492-3391 limits assumed): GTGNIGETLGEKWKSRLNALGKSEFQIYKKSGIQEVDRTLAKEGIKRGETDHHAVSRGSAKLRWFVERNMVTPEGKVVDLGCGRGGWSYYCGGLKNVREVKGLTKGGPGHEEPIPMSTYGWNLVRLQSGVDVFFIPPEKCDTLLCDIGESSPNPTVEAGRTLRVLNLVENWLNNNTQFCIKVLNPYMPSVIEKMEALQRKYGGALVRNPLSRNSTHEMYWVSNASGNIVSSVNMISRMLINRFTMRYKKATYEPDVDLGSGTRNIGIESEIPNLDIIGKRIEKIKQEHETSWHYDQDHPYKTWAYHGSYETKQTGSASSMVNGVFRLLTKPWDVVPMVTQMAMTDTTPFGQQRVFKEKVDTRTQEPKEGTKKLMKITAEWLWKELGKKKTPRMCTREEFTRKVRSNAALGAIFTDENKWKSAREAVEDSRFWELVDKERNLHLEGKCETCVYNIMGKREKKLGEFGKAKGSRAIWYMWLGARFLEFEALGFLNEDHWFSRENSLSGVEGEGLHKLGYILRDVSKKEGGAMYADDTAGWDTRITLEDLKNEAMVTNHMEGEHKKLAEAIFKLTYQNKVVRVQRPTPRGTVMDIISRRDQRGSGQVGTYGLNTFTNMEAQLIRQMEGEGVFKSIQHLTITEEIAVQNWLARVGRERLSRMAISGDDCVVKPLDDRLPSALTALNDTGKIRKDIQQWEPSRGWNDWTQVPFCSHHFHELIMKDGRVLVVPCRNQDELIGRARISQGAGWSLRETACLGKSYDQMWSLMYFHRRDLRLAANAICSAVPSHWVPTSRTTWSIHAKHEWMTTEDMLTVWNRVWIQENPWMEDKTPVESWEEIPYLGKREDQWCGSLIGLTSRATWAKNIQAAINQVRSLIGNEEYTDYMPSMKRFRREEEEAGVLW

CCc1nnc(NS(=O)(=O)c2ccc(NC(=S)NC(=O)/C=C/c3ccc(C(C)C)cc3)cc2)s1
active: IC50 (Genome polyprotein) 50 µM

O=C(/C=C/c1ccco1)Nc1ccc(Oc2ccccc2)cc1
active: IC50 (Caspase-3) 20.5 µM | IC50 [1] 3.82 µM | IC50 [2] 5.23 µM | IC50 [3] 17.4 µM

COc1ccc(S(=O)(=O)Nc2cc(SCC(=O)O)c(O)c3ccccc23)cc1
active: IC50 (Caspase-3) 11.2 µM | IC50 [1] 19.9 µM | IC50 [2] 3.81 µM | IC50 [3] 9.39 µM | AC50 (INS1) 4.09 µM | IC50 (Genome polyprotein) 7.22 µM | CC50 [4] 5.84 µM

O=C1C(Nc2ccc(O)cc2)=C/C(=N/S(=O)(=O)c2cccs2)c2ccccc21
active: EC50 [5] 0.55 µM | EC50 [6] 0.486 µM

CC1CC(=O)c2c(cc3c(-c4c(O)cc(O)c5c(O)c6c(cc45)OC(C)CC6=O)c(O)cc(O)c3c2O)O1 (stereo not drawn) [CEPHALOCHROMIN]
active: EC50 [5] 0.373 µM | EC50 [6] 8.42 µM | AC50 (INS1) 3.39 µM | CC50 [4] 3.08 µM
